The test system of one experiment is Zymoseptoria tritici. Nature of the experiment: Leaf blotch of wheat (SEPTTR) disease control on wheat seedlings. Format: in vivo. Further details: key to SEPTTR 1DP, HV activity at 100 ppm (% control rating) / SEPTTR 3DC, HV activity at 100 ppm (% control rating) / SEPTTR disease control, 1DP / SEPTTR disease control, 3DC / SEPTTR 1DP disease control rating, HV activity / SEPTTR 3DC disease control rating, HV activity / SEPTTR 3DC, LV activity at 125.1 g/H (% Control rating) / SEPTTR 1DP, LV activity at 125.1 g/H (% Control rating) / SEPTTR 1DP disease control rating, LV activity at 125.1 g/H / SEPTTR 3DC disease control rating, LV activity at 125.1 g/H / SEPTTR 3DC disease control rating, HV activity at 100 ppm / SEPTTR 1DP disease control rating, HV activity at 100 ppm / HV activity at 100 ppm SEPTTR 3DC (disease control rating) / HV activity at 100 ppm SEPTTR 1DP (disease control rating) / LV activity at 125.1 g/H SEPTTR 1DP (disease control rating) / LV activity at 125.1 g/H SEPTTR 3DC (disease control rating): A: > 80; B: ≤ 80; C: Not Tested; D: No Activity Observed in the Reported Assay. The conditions noted are these: for SEPTTR 1DP disease control rating, HV activity / SEPTTR 3DC disease control rating, HV activity: HV application at 100 ppm.

Another experiment has as its system Puccinia triticina. Put plainly: Wheat brown rust (PUCCRT) disease control on wheat seedlings. Format: in vivo. Further details: key to PUCCRT 3DC, HV activity at 100 ppm (% control rating) / PUCCRT disease control, 3DC / PUCCRT 1DP disease control rating, HV activity / PUCCRT 3DC disease control rating, HV activity / PUCCRT 3DC, LV activity at 125.1 g/H (% Control rating) / PUCCRT 1DP, LV activity at 125.1 g/H (% Control rating) / PUCCRT 3DC disease control rating, LV activity at 125.1 g/H / PUCCRT 1DP disease control rating, LV activity at 125.1 g/H / PUCCRT 3DC disease control rating, HV activity at 100 ppm / PUCCRT 1DP disease control rating, HV activity at 100 ppm / HV activity at 100 ppm PUCCRT 3DC (disease control rating) / LV activity at 125.1 g/H PUCCRT 1DP (disease control rating) / LV activity at 125.1 g/H PUCCRT 3DC (disease control rating): A: > 80; B: ≤ 80; C: Not Tested; D: No Activity Observed in the Reported Assay. The note with it: for PUCCRT 1DP disease control rating, HV activity / PUCCRT 3DC disease control rating, HV activity: HV application at 100 ppm.

The mark [1] stands for this setting: HV activity at 100 ppm, 1 Day Protectant, wheat.
Where [2] appears, read: HV activity at 100 ppm, 3 Day Curative, wheat.
[3] abbreviates: 1 Day Protectant, wheat leaf blotch.
Setting [4] is: 3 Day Curative, wheat leaf blotch.
[5] abbreviates: high volume application, 100 ppm, 1DP.
[6] abbreviates: high volume application, 100 ppm, 3DC.
Where [7] appears, read: 1 Day Protectant, wheat brown rust.
The mark [8] stands for this setting: 3 Day Curative, wheat brown rust.
Where [9] appears, read: low volume application, 125.1 g/H, 1 Day Protectant.
The mark [10] stands for this setting: low volume application, 125.1 g/H, 3 Day Curative.
Where [11] appears, read: high volume application, 100 ppm, 1 day protectant.
[12] abbreviates: high volume application, 100 ppm, 3 day curative.
[13] abbreviates: low volume application, 125.1 g/H, 1 day protectant.
Where [14] appears, read: low volume application, 125.1 g/H, 3 day curative.

Take `CCCOC(CC)C(Oc1ccccc1)C(C)OC(=O)C(C)NC(=O)c1nccc(OC)c1O` (stereo not shown) [Cmpd 295]: the “SEPTTR disease control, 1DP” value with Zymoseptoria tritici (setting [1]) is “D”. In addition, the “SEPTTR disease control, 3DC” value in the experiment with Zymoseptoria tritici (setting [2]) was “B (≤ 80)”. In addition, the “SEPTTR 1DP disease control rating, HV activity” value with Zymoseptoria tritici (setting [3]) is “D”. Also, the “SEPTTR 3DC disease control rating, HV activity” value in the experiment with Zymoseptoria tritici (setting [4]) was “B (≤ 80)”. Besides, the “SEPTTR 1DP, HV activity at 100 ppm (% control rating)” value in the experiment with Zymoseptoria tritici (setting [5]) was “D”. Also, the “SEPTTR 3DC, HV activity at 100 ppm (% control rating)” value in the experiment on Zymoseptoria tritici (setting [6]) was “B (≤ 80)”. The “PUCCRT disease control, 1DP” value with Puccinia triticina (setting [1]) was “B (≤ 80)”. The “PUCCRT disease control, 3DC” value in the experiment on Puccinia triticina (setting [2]) is on record as “B (≤ 80)”. Besides, the “PUCCRT 1DP disease control rating, HV activity” value in the experiment on Puccinia triticina (setting [7]) is given as “B (≤ 80)”. Further, the “PUCCRT 3DC disease control rating, HV activity” value in the experiment with Puccinia triticina (setting [8]) is listed as “B (≤ 80)”. The “PUCCRT 1DP, HV activity at 100 ppm (% control rating)” value in the experiment on Puccinia triticina (setting [5]) is reported as “B (≤ 80)”. Further, the “PUCCRT 3DC, HV activity at 100 ppm (% control rating)” value with Puccinia triticina (setting [6]) is “B (≤ 80)”.
Regarding `CC[C@H](Cc1ccc(F)cc1)[C@@H](Oc1ccccc1)[C@H](C)OC(=O)[C@H](C)NC(=O)c1nccc(OC)c1OC(=O)C(C)C` [Cmpd 473], the “SEPTTR 1DP, LV activity at 125.1 g/H (% Control rating)” value in the experiment on Zymoseptoria tritici (setting [9]) is given as “B (≤ 80)”. For the same compound, the “SEPTTR 3DC, LV activity at 125.1 g/H (% Control rating)” value in the experiment with Zymoseptoria tritici (setting [10]) is recorded as “B (≤ 80)”. Further, the “PUCCRT 1DP, LV activity at 125.1 g/H (% Control rating)” value in the experiment with Puccinia triticina (setting [9]) is listed as “A (> 80)”. Further, the “PUCCRT 3DC, LV activity at 125.1 g/H (% Control rating)” value with Puccinia triticina (setting [10]) is on record as “D”.
`CCC(CC)[C@@H](Oc1ccc(Cl)cc1)[C@H](C)OC(=O)[C@@H](NC(=O)c1nccc(OC)c1O)C(C)C` [Cmpd 407]: in the experiment with Zymoseptoria tritici (setting [3]), the “SEPTTR 1DP disease control rating, HV activity” value is listed as “B (≤ 80)”. For the same compound, the “SEPTTR 3DC disease control rating, HV activity” value in the experiment on Zymoseptoria tritici (setting [4]) was “D”. The “PUCCRT 1DP disease control rating, HV activity” value with Puccinia triticina (setting [7]) is on record as “B (≤ 80)”. The “PUCCRT 3DC disease control rating, HV activity” value with Puccinia triticina (setting [8]) was “B (≤ 80)”.
Take `COc1ccnc(C(=O)NC(C(=O)OC(C)C(Oc2cccc3ccccc23)C(C)C)C(C)C)c1O` (stereo not shown) [Cmpd 400]: in the experiment on Zymoseptoria tritici (setting [3]), the “SEPTTR 1DP disease control rating, HV activity” value is reported as “B (≤ 80)”. Moreover, the “SEPTTR 3DC disease control rating, HV activity” value in the experiment on Zymoseptoria tritici (setting [4]) is recorded as “B (≤ 80)”. The “PUCCRT 1DP disease control rating, HV activity” value in the experiment on Puccinia triticina (setting [7]) is on record as “A (> 80)”. For the same compound, in the experiment on Puccinia triticina (setting [8]), the “PUCCRT 3DC disease control rating, HV activity” value is reported as “B (≤ 80)”.
For `CCC(CC)[C@@H](Oc1ccc(C(F)(F)F)cc1)[C@H](C)OC(=O)[C@H](C)NC(=O)c1nccc(OC)c1OCOC(C)=O` [Cmpd 594], the “SEPTTR 1DP, LV activity at 125.1 g/H (% Control rating)” value in the experiment with Zymoseptoria tritici (setting [9]) is listed as “A (> 80)”. For the same compound, the “SEPTTR 3DC, LV activity at 125.1 g/H (% Control rating)” value in the experiment on Zymoseptoria tritici (setting [10]) is on record as “B (≤ 80)”. The “PUCCRT 1DP, LV activity at 125.1 g/H (% Control rating)” value in the experiment on Puccinia triticina (setting [9]) is given as “A (> 80)”. In addition, the “PUCCRT 3DC, LV activity at 125.1 g/H (% Control rating)” value with Puccinia triticina (setting [10]) is “A (> 80)”.
Turning to `C=CC[C@@H](Oc1cccc(Cl)c1)[C@H](C)OC(=O)[C@H](C)NC(=O)c1nccc(OC)c1OC(C)=O` [Cmpd 1079], in the experiment with Zymoseptoria tritici (low volume application, 125.1 g/H, 1 Day Protectant, wheat leaf blotch), the “LV activity at 125.1 g/H SEPTTR 1DP (disease control rating)” value is reported as “B (≤ 80)”. Besides, the “LV activity at 125.1 g/H SEPTTR 3DC (disease control rating)” value in the experiment on Zymoseptoria tritici (low volume application, 125.1 g/H, 3 Day Curative, wheat leaf blotch) is recorded as “B (≤ 80)”. In addition, the “LV activity at 125.1 g/H PUCCRT 1DP (disease control rating)” value in the experiment with Puccinia triticina (low volume application, 125.1 g/H, 1 Day Protectant, wheat brown rust) was “A (> 80)”. For the same compound, the “LV activity at 125.1 g/H PUCCRT 3DC (disease control rating)” value in the experiment on Puccinia triticina (low volume application, 125.1 g/H, 3 Day Curative, wheat brown rust) is given as “A (> 80)”.
In the case of `CCC[C@@H](Oc1ccc(Cl)c(OC)c1)[C@H](C)OC(=O)[C@H](C)NC(=O)c1nccc(OC)c1O` [Cmpd 1008], the “SEPTTR 1DP disease control rating, HV activity at 100 ppm” value in the experiment on Zymoseptoria tritici (setting [11]) is on record as “B (≤ 80)”. For the same compound, the “SEPTTR 3DC disease control rating, HV activity at 100 ppm” value in the experiment on Zymoseptoria tritici (setting [12]) is reported as “B (≤ 80)”. For the same compound, in the experiment on Puccinia triticina (setting [11]), the “PUCCRT 1DP disease control rating, HV activity at 100 ppm” value is “B (≤ 80)”. For the same compound, the “PUCCRT 3DC disease control rating, HV activity at 100 ppm” value in the experiment with Puccinia triticina (setting [12]) is listed as “B (≤ 80)”.
For the compound `COc1ccnc(C(=O)N[C@@H](C)C(=O)O[C@@H](C)[C@H](OC)c2ccccc2)c1OC(C)=O` [Cmpd 887], in the experiment on Zymoseptoria tritici (setting [13]), the “SEPTTR 1DP disease control rating, LV activity at 125.1 g/H” value is on record as “D”. In the experiment on Zymoseptoria tritici (setting [14]), the “SEPTTR 3DC disease control rating, LV activity at 125.1 g/H” value is “A (> 80)”. The “PUCCRT 1DP disease control rating, LV activity at 125.1 g/H” value with Puccinia triticina (setting [13]) is on record as “D”. Also, the “PUCCRT 3DC disease control rating, LV activity at 125.1 g/H” value in the experiment with Puccinia triticina (setting [14]) is on record as “A (> 80)”.

The values above are taken from patent US20180000085A1, “USE OF PICOLINAMIDE COMPOUNDS WITH FUNGICIDAL ACTIVITY” (DOW AGROSCIENCES LLC, priority 2014, published 2018).
